From PubChem BioAssay (NCI) come the findings set out here.

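Exposure lasted 48 hours, with cells grown in 96-well plates and compounds tested at five concentrations. TGI denotes the concentration required for complete inhibition of growth.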

Among the test systems are ACHN renal; CAKI-1 renal; DU-145 prostate; EKVX NSCLC; HL-60(TB) leukemia; IGROV1 ovarian; LOX IMVI melanoma; NCI-H23 lung; NCI-H460 lung; OVCAR-3 ovarian; OVCAR-4 ovarian; OVCAR-8 ovarian; SF-268 CNS; SF-539 CNS; SK-MEL-2 melanoma; SK-MEL-28 melanoma; SNB-75 CNS; UACC-257 melanoma; UO-31 renal.
Common to all, as to test: growth of human tumour cells (NCI), 48 h

With `O=C1c2ccccc2C(=O)[C@@]23O[C@@]12C1(Oc2cccc4cccc(c24)O1)[C@@H]1O[C@@H]1[C@@H]3O`, the TGI in the test on ACHN renal came out at 27.7 µM; in the test on CAKI-1 renal, 24.5 µM; in the test on DU-145 prostate, 33.2 µM; in the test with EKVX NSCLC, 54.2 µM; in the test with HL-60(TB) leukemia, 4.89 µM; in the test on IGROV1 ovarian, 27.4 µM. The TGI with LOX IMVI melanoma came to 16.5 µM; in the test with NCI-H23 lung, 29.6 µM; with NCI-H460 lung it was 23.6 µM; in the test on OVCAR-3 ovarian, 12.6 µM; with OVCAR-4 ovarian it was 17.4 µM; in the test on OVCAR-8 ovarian, 12.8 µM. Moreover, the TGI in the test on SF-268 CNS is 25.4 µM; with SF-539 CNS, 9.56 µM; in the test with SK-MEL-2 melanoma it was 42.1 µM; in the test on SK-MEL-28 melanoma, greater than 54.1 µM; in the test on SNB-75 CNS, 24 µM; in the test with UACC-257 melanoma it was 40.1 µM. In the test on UO-31 renal, this molecule had a TGI of 24.4 µM.
With `N#Cc1c(Cl)cccc1Oc1ccc(S(=O)(=O)/N=C(\NN)Nc2ccc(Cl)cc2)cc1`, the TGI with ACHN renal was greater than 100 µM; with CAKI-1 renal it was greater than 100 µM; in the test on DU-145 prostate, 86.9 µM; with EKVX NSCLC it was 68.3 µM; in the test with HL-60(TB) leukemia, 47.7 µM; in the test with IGROV1 ovarian, 43.4 µM. For the same molecule, the TGI is 31.4 µM with LOX IMVI melanoma; 65.6 µM with NCI-H23 lung; 43.7 µM in the test with NCI-H460 lung; 40.2 µM with OVCAR-3 ovarian; 71 µM in the test on OVCAR-4 ovarian; greater than 100 µM with OVCAR-8 ovarian. Besides, the TGI with SF-268 CNS is 48.9 µM; in the test on SF-539 CNS, 36.6 µM; in the test with SK-MEL-2 melanoma, 46.5 µM; in the test with SK-MEL-28 melanoma it was greater than 100 µM; with SNB-75 CNS, 54.7 µM; in the test on UACC-257 melanoma, 72.3 µM. The molecule further registered a TGI with UO-31 renal of 91.5 µM.
Turning to `COC(=O)C1(c2cc3ccccc3n2S(=O)(=O)c2ccccc2)CC2C=CC1NC2` (stereo not drawn), the TGI worked out at 3.82 µM in the test with ACHN renal; 4.27 µM in the test with CAKI-1 renal; 6.62 µM in the test on DU-145 prostate; 15.1 µM in the test on EKVX NSCLC; 4.71 µM with HL-60(TB) leukemia; 3.22 µM in the test with IGROV1 ovarian. Moreover, the TGI in the test on LOX IMVI melanoma is 3.73 µM; in the test on NCI-H23 lung, 6.85 µM; in the test on NCI-H460 lung, greater than 29.6 µM; in the test on OVCAR-3 ovarian, 5.43 µM; in the test with OVCAR-4 ovarian it was 6.07 µM; in the test on OVCAR-8 ovarian it was 4.42 µM. Also, the TGI in the test on SF-268 CNS is greater than 20.2 µM; with SF-539 CNS, 3.55 µM; with SK-MEL-2 melanoma, 3.63 µM; in the test with SK-MEL-28 melanoma, 8.49 µM; in the test on SNB-75 CNS, 17.9 µM; in the test on UACC-257 melanoma, 4.93 µM. In addition, the TGI in the test on UO-31 renal was 2.86 µM.
For the molecule `O=c1[nH]/c(=C/c2ccc(OCc3ccccc3)cn2)c(=O)[nH]/c1=C/c1ccc([N+](=O)[O-])cc1`, the TGI is greater than 100 µM in the test with ACHN renal; greater than 73.1 µM in the test with CAKI-1 renal; greater than 100 µM in the test on DU-145 prostate; greater than 100 µM in the test with EKVX NSCLC; greater than 100 µM in the test on HL-60(TB) leukemia; greater than 100 µM with IGROV1 ovarian. The TGI in the test with LOX IMVI melanoma, with NCI-H23 lung, in the test on NCI-H460 lung, in the test on OVCAR-3 ovarian, in the test on OVCAR-4 ovarian and in the test with OVCAR-8 ovarian was greater than 100 µM each time. Also, the TGI was greater than 100 µM in the test on SF-268 CNS; greater than 100 µM in the test with SF-539 CNS; greater than 100 µM in the test with SK-MEL-2 melanoma; greater than 100 µM in the test with SK-MEL-28 melanoma; 70.2 µM in the test on SNB-75 CNS; greater than 100 µM in the test with UACC-257 melanoma. This molecule displayed a TGI in the test with UO-31 renal greater than 100 µM.
Take `[O-][n+]1onc2c1CCC(=N\O)/C2=N/Nc1ccccc1`: the TGI in the test on ACHN renal, with CAKI-1 renal, in the test on DU-145 prostate, with EKVX NSCLC, in the test with HL-60(TB) leukemia and in the test on IGROV1 ovarian was greater than 100 µM each time. The TGI with LOX IMVI melanoma, with NCI-H23 lung, in the test with NCI-H460 lung, in the test on OVCAR-3 ovarian, in the test on OVCAR-4 ovarian and in the test on OVCAR-8 ovarian was greater than 100 µM each time. The TGI in the test with SF-268 CNS, with SF-539 CNS, in the test on SK-MEL-2 melanoma, with SK-MEL-28 melanoma, with SNB-75 CNS and with UACC-257 melanoma was greater than 100 µM throughout. This molecule also yielded a TGI in the test on UO-31 renal greater than 100 µM.
As for `Nc1nc(Cl)c2ncn(Cc3ccc(CCl)cc3)c2n1`, the TGI in the test on ACHN renal is 25.1 µM; in the test with CAKI-1 renal, 9.87 µM; in the test with DU-145 prostate, 19.5 µM; with EKVX NSCLC, 7.22 µM; with HL-60(TB) leukemia, greater than 100 µM; in the test with IGROV1 ovarian, 22.9 µM. The TGI was 43.9 µM in the test with LOX IMVI melanoma; 30.4 µM in the test on NCI-H23 lung; 20 µM in the test with NCI-H460 lung; 5.5 µM with OVCAR-3 ovarian; 30.1 µM in the test on OVCAR-4 ovarian; 32.8 µM in the test with OVCAR-8 ovarian. Also, the TGI in the test with SF-268 CNS was 8.38 µM; in the test on SF-539 CNS, 9.89 µM; in the test with SK-MEL-2 melanoma, 29.1 µM; in the test with SK-MEL-28 melanoma, 44.4 µM; with SNB-75 CNS, 90.2 µM; with UACC-257 melanoma, 47.9 µM. Moreover, in the test with UO-31 renal, the TGI amounted to 25.4 µM.
Consider `Oc1cc(-c2ccccc2)cn2c1nc1ccccc12`, for which the TGI is greater than 100 µM in the test on ACHN renal; greater than 100 µM with CAKI-1 renal; greater than 31.6 µM with DU-145 prostate; greater than 100 µM with EKVX NSCLC; 9.4 µM in the test on HL-60(TB) leukemia; greater than 38.8 µM with IGROV1 ovarian. For the same molecule, the TGI in the test on LOX IMVI melanoma is greater than 100 µM; with NCI-H23 lung it was greater than 100 µM; in the test with NCI-H460 lung, greater than 100 µM; with OVCAR-3 ovarian, greater than 100 µM; with OVCAR-4 ovarian, greater than 100 µM; with OVCAR-8 ovarian it was greater than 54.3 µM. Further, the TGI with SF-268 CNS is greater than 100 µM; in the test with SF-539 CNS, greater than 96.6 µM; with SK-MEL-2 melanoma, greater than 100 µM; in the test on SK-MEL-28 melanoma it was greater than 100 µM; in the test with SNB-75 CNS, greater than 100 µM; in the test with UACC-257 melanoma, greater than 100 µM. This molecule came in with a TGI in the test with UO-31 renal greater than 32.8 µM.
